Values of other authors in patent US9840652B2, “Water-based drilling fluid with cyclodextrin shale stabilizer” (Halliburton Energy Services, Inc., priority 2012, dated 2017).

Tests used:
[1] = tested on: Cyprinus carpio (common carp)

## OC[C@H]1O[C@@H]2O[C@H]3[C@H](O)[C@@H](O)[C@@H](O[C@H]4[C@H](O)[C@@H](O)[C@@H](O[C@H]5[C@H](O)[C@@H](O)[C@@H](O[C@H]6[C@H](O)[C@@H](O)[C@@H](O[C@H]7[C@H](O)[C@@H](O)[C@@H](O[C@H]8[C@H](O)[C@@H](O)[C@@H](O[C@H]1[C@H](O)[C@H]2O)O[C@@H]8CO)O[C@@H]7CO)O[C@@H]6CO)O[C@@H]5CO)O[C@@H]4CO)O[C@@H]3CO [β-cyclodextrin]
[1]
  96-hr LC50: 7561 µg/mL
Daphnia magna
  48-hr EC50: > 100 µg/mL
Desmodesmus subspicatus
  72-hr density EC50: > 100 µg/mL
